Assay results from patent publication US12486269B2 (Aconcagua Bio, Inc., priority 2024, dated 2025).

Key:
[1] = target: T1, COS-7/AMY3 (human calcitonin receptor (CTR) and RAMP3) (Homo sapiens, UniProt O60896+P30988); assay: Amylin Receptor cAMP Assay II; type: cell-based; conditions: values marked **: Amylin Receptor cAMP Assay II; COS-7/AMY3 cells, cAMP dynamic 2 kit, 30 min; read-out: Amylin Receptor cAMP Stimulation Activity: EC50
T1 construct: expressed in transfected cells; host or cells: COS-7
Procedure, shortened: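 Agonist-induced cAMP was quantified by HTRF ratio at 665/615 nm and expressed as % of the window from vehicle to MAX control. Stimulation lasted 30 min at 37 °C in HBSS/20 mM HEPES/0.5 mM IBMX/0.1% casein, using stable human CTR+RAMP3 (AMY3) COS-7 cells at 2000 per well.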

[2] = target: T2, human calcitonin receptor (CTR) (Homo sapiens, UniProt P30988); assay: Calcitonin Receptor (CTR) cAMP Assay; type: cell-based; conditions: COS7-human CTR Clone #2 stable cell line, cAMP dynamic 2 kit, 30 min; read-out: Calcitonin Receptor cAMP Stimulation Activity: EC50
T2 construct: expressed in transfected cells; host or cells: COS-7 (COS7-human CTR Clone #2)
T2 sequence (P30988 25-474): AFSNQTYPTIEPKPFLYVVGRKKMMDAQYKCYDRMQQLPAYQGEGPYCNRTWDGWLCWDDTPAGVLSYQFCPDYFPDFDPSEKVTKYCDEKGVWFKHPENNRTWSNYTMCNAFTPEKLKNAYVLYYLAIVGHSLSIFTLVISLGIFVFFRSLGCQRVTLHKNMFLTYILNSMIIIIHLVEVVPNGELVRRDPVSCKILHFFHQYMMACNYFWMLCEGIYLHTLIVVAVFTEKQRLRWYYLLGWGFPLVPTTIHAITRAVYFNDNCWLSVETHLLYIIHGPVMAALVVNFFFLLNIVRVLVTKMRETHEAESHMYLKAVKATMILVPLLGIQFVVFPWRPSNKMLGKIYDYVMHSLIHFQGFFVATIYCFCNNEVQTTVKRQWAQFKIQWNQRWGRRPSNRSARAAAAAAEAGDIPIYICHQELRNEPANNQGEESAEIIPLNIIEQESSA
Procedure, shortened: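 cAMP accumulation was measured by HTRF cAMP dynamic 2 read at 665/615 nm, 1 h at room temperature, with results scaled between vehicle and positive control. Before detection, COS7-human CTR stable cells were stimulated 30 min at 37 °C with compound (4-fold dilutions) in IBMX-containing HBSS/HEPES/casein buffer.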

T1 sequence (O60896 24-148, one chain of several): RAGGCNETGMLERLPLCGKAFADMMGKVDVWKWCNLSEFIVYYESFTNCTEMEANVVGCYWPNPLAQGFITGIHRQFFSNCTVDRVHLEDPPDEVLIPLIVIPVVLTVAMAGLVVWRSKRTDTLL

Structure (SMILES)	EC50 [1] [nM]	EC50 [2] [nM]
O=C1c2c(nc(CCc3ccc(F)cc3)c(-c3n[nH]c(=O)o3)c2-c2cnc3c(ccn3Cc3ncc(F)cc3F)c2)[C@@H]2CCCN12 [Compound 210, (S)-5-(4-(1-((3,5-difluoropyridin-2-yl)methyl)-1H-pyrrolo[2,3-b]pyridin-5-yl)-2-(4-fluorophenethyl)-5-oxo-7,8,9,9a-tetrahydro-5H-pyrido[2,3-a]pyrrolizin-3-yl)-1,3,4-oxadiazol-2(3H)-one]	467	23
COc1cccc2c1CC[C@H]2Nc1nccc2cc(-c3c4c(nc(CCc5ccn6ccnc6c5)c3-c3n[nH]c(=O)o3)[C@@H]3CCCN3C4=O)sc12 [Compound 241, 5-((S)-2-(2-(imidazo[1,2-a]pyridin-7-yl)ethyl)-4-(7-(((R)-4-methoxy-2,3-dihydro-1H-inden-1-yl)amino)thieno[2,3-c]pyridin-2-yl)-5-oxo-7,8,9,9a-tetrahydro-5H-pyrido[2,3-a]pyrrolizin-3-yl)-1,3,4-oxadiazol-2(3H)-one]	33.5	1.72
N#Cc1ccc(Cn2ccc3cc(-c4c5c(nc(CCc6ccc(F)cc6)c4-c4n[nH]c(=O)o4)C4CCCN4C5=O)cnc32)cc1F (stereo not shown) [Compound 214, 2-fluoro-4-((5-(2-(4-fluorophenethyl)-5-oxo-3-(5-oxo-4,5-dihydro-1,3,4-oxadiazol-2-yl)-7,8,9,9a-tetrahydro-5H-pyrido[2,3-a]pyrrolizin-4-yl)-1H-pyrrolo[2,3-b]pyridin-1-yl)methyl)benzonitrile]	129	1.92
O=C1c2c(nc(CCc3ccc(F)cc3)c(-c3noc(=O)[nH]3)c2-c2cc3ccnc(NCc4ccc(Cl)c(F)c4)c3s2)[C@@H]2CCCN12 [Compound 147]	51.9	2.8

Continued, values first:

EC50 [1] [nM]	EC50 [2] [nM]	Structure (SMILES)
1.07	0.0413	O=C1c2c(nc(CCc3ccc(F)cc3)c(-c3n[nH]c(=O)o3)c2-c2cc3cc(C(F)F)nc(N[C@@H]4CCOc5c(F)cc(F)cc54)c3s2)C23CC(CN12)C3 [Compound 297, (R)-5-(4-(7-((6,8-difluorochroman-4-yl)amino)-5-(difluoromethyl)thieno[2,3-c]pyridin-2-yl)-2-(4-fluorophenethyl)-5-oxo-8,9-dihydro-5H,7H-8,9a-methanopyrido[2,3-a]pyrrolizin-3-yl)-1,3,4-oxadiazol-2(3H)-one]
0.272	0.0164	COc1c(F)ccc2c1CC(F)(F)[C@H]2Nc1nc(C)cc2cc(-c3c4c(nc(CCc5ccc(F)cc5)c3-c3n[nH]c(=O)o3)C35CC(CN3C4=O)C5)sc12 [Compound 296, (S)-5-(2-(4-fluorophenethyl)-4-(5-methyl-7-((2,2,5-trifluoro-4-methoxy-2,3-dihydro-1H-inden-1-yl)amino)thieno[2,3-c]pyridin-2-yl)-5-oxo-8,9-dihydro-5H,7H-8,9a-methanopyrido[2,3-a]pyrrolizin-3-yl)-1,3,4-oxadiazol-2(3H)-one]
1.6	0.148	COc1c(F)ccc2c1CC[C@H]2Nc1ncnc2sc(-c3c4c(nc(CCc5ccc(F)cc5)c3-c3n[nH]c(=O)o3)C35CC(CN3C4=O)C5)cc12 [Compound 270, (R)-5-(4-(4-((5-fluoro-4-methoxy-2,3-dihydro-1H-inden-1-yl)amino)thieno[2,3-d]pyrimidin-6-yl)-2-(4-fluorophenethyl)-5-oxo-8,9-dihydro-5H,7H-8,9a-methanopyrido[2,3-a]pyrrolizin-3-yl)-1,3,4-oxadiazol-2(3H)-one]
0.363	0.0172	COc1c(F)c(F)cc2c1CC[C@H]2Nc1nc(C)cc2cc(-c3c4c(nc(CCc5ccc(F)cc5)c3-c3n[nH]c(=O)o3)[C@@H]3CCCN3C4=O)sc12 [Compound 299, 5-((S)-4-(7-(((R)-5,6-difluoro-4-methoxy-2,3-dihydro-1H-inden-1-yl)amino)-5-methylthieno[2,3-c]pyridin-2-yl)-2-(4-fluorophenethyl)-5-oxo-7,8,9,9a-tetrahydro-5H-pyrido[2,3-a]pyrrolizin-3-yl)-1,3,4-oxadiazol-2(3H)-one]
